Test results from PubChem BioAssay (NCI).
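Cultured in 96-well plates, cells were exposed to test compound for 48 hours across five concentrations. Here, GI50 denotes the concentration required for 50% inhibition of growth. TGI: concentration producing complete growth inhibition.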

Key:
Test in all cases: growth of human tumour cells (NCI), 48 h
[1] = system: HCT-116 colon
[2] = system: UACC-257 melanoma
[3] = system: EKVX NSCLC
[4] = system: SF-539 CNS
[5] = system: NCI/ADR-RES ovarian
[6] = system: BT-549 breast
[7] = system: HCC-2998 colon
[8] = system: NCI-H23 lung
[9] = system: OVCAR-8 ovarian
[10] = system: SN12C renal
[11] = system: HOP-62 NSCLC
[12] = system: OVCAR-4 ovarian
[13] = system: COLO 205 colon
[14] = system: UO-31 renal
[15] = system: HT29 colon
[16] = system: NCI-H522 lung
[17] = system: MDA-MB-231 breast
[18] = system: SK-MEL-28 melanoma
[19] = system: IGROV1 ovarian
[20] = system: T-47D breast
[21] = system: CAKI-1 renal
[22] = system: SK-OV-3 ovarian
[23] = system: MCF7 breast
[24] = system: OVCAR-3 ovarian
[25] = system: UACC-62 melanoma
[26] = system: HOP-92 NSCLC
[27] = system: LOX IMVI melanoma
[28] = system: 786-0 renal
[29] = system: SNB-19 CNS
[30] = system: A549 NSCLC
[31] = system: SF-295 CNS
[32] = system: U251 CNS
[33] = system: CCRF-CEM leukemia
[34] = system: RXF 393 renal
[35] = system: SR leukemia
[36] = system: KM12 colon
[37] = system: HS 578T breast
[38] = system: HL-60(TB) leukemia
[39] = system: SK-MEL-5 melanoma
[40] = system: K-562 leukemia
[41] = system: SNB-75 CNS
[42] = system: PC-3 prostate
[43] = system: SW-620 colon
[44] = system: HCT-15 colon
[45] = system: A498 renal
[46] = system: OVCAR-5 ovarian
[47] = system: NCI-H460 lung
[48] = system: ACHN renal
[49] = system: MOLT-4 leukemia
[50] = system: DU-145 prostate
[51] = system: MDA-MB-435
[52] = system: MALME-3M melanoma
[53] = system: NCI-H226 lung
[54] = system: SF-268 CNS
[55] = system: M14 melanoma
[56] = system: TK-10 renal
[57] = system: SK-MEL-2 melanoma
[58] = system: RPMI-8226 leukemia

In the case of `O=C(CCCCCCCCC(=O)N/N=C\c1cc(Cl)ccc1O)N/N=C\c1cc(Cl)ccc1O`, the GI50 [1] is reported as 308 nM, the TGI [1] is reported as greater than 100000 nM and the GI50 [2] is reported as 306 nM. The GI50 [3] was 3490 nM, the TGI [3] was greater than 100000 nM and the GI50 [4] was 339 nM. It also gave a TGI [4] greater than 46800 nM, a GI50 [5] of 294 nM and a GI50 [6] of 526 nM. For the same compound, the TGI [6] was 96800 nM, the GI50 [7] was 3320 nM and the TGI [7] was greater than 100000 nM. The GI50 [8] was 636 nM, the TGI [8] was greater than 67300 nM and the GI50 [9] was 231 nM. For the same compound, the TGI [9] was 28900 nM, the GI50 [10] was 427 nM and the TGI [10] was greater than 100000 nM. It also gave a GI50 [11] of 284 nM, a TGI [11] greater than 100000 nM and a GI50 [12] of 315 nM. The TGI [12] was greater than 100000 nM, the GI50 [13] was 3190 nM and the TGI [13] was greater than 100000 nM. For the same compound, the GI50 [14] was 152 nM, the TGI [14] was greater than 100000 nM and the GI50 [15] was greater than 25500 nM. It also gave a TGI [15] greater than 100000 nM, a GI50 [16] of 310 nM and a TGI [16] greater than 100000 nM. For the same compound, the GI50 [17] was 265 nM, the TGI [17] was greater than 82600 nM and the GI50 [18] was 2640 nM. For the same compound, the TGI [18] was greater than 100000 nM, the GI50 [19] was 830 nM and the TGI [19] was greater than 100000 nM. It also gave a GI50 [20] of 1480 nM, a TGI [20] greater than 100000 nM and a GI50 [21] of 251 nM. For the same compound, the TGI [21] was greater than 100000 nM, the GI50 [22] was 685 nM and the TGI [22] was 79900 nM. It also gave a GI50 [23] of 364 nM, a TGI [23] greater than 100000 nM and a GI50 [24] of 311 nM. The TGI [24] was greater than 100000 nM, the GI50 [25] was 235 nM and the GI50 [26] was 105 nM. The TGI [26] was 37500 nM, the GI50 [27] was 149 nM and the TGI [27] was 7410 nM. The GI50 [28] was 287 nM, the TGI [28] was 15500 nM and the GI50 [29] was 813 nM. It also gave a TGI [29] greater than 100000 nM, a GI50 [30] of 980 nM and a TGI [30] greater than 100000 nM. For the same compound, the GI50 [31] was 1110 nM, the TGI [31] was greater than 46500 nM and the GI50 [32] was 192 nM. It also gave a TGI [32] of 25900 nM, a GI50 [33] of 172 nM and a TGI [33] of 24600 nM. For the same compound, the GI50 [34] was 208 nM, the TGI [34] was 7780 nM and the GI50 [35] was 95.5 nM. For the same compound, the TGI [35] was 16700 nM, the GI50 [36] was 594 nM and the TGI [36] was greater than 100000 nM. It also gave a GI50 [37] of 16400 nM, a TGI [37] greater than 100000 nM and a GI50 [38] of 164 nM. The TGI [38] was 571 nM, the GI50 [39] was 161 nM and the TGI [39] was 659 nM. The GI50 [40] was 380 nM, the TGI [40] was 10200 nM and the GI50 [41] was 15600 nM. The TGI [41] was greater than 65900 nM, the GI50 [42] was 864 nM and the TGI [42] was greater than 100000 nM. For the same compound, the GI50 [43] was 916 nM, the TGI [43] was greater than 100000 nM and the GI50 [44] was 251 nM. The TGI [44] was greater than 100000 nM, the GI50 [45] was greater than 33100 nM and the TGI [45] was greater than 80900 nM. The GI50 [46] was 7990 nM, the TGI [46] was greater than 100000 nM and the GI50 [47] was 162 nM. It also gave a TGI [47] of 19600 nM, a GI50 [48] of 175 nM and a TGI [48] greater than 100000 nM. The GI50 [49] was 222 nM, the TGI [49] was 17600 nM and the GI50 [50] was 495 nM. For the same compound, the TGI [50] was greater than 100000 nM, the GI50 [51] was 625 nM and the TGI [51] was greater than 100000 nM. For the same compound, the GI50 [52] was 462 nM, the TGI [52] was greater than 100000 nM and the GI50 [53] was 500 nM. It also gave a TGI [53] greater than 36200 nM, a GI50 [54] of 223 nM and a TGI [54] greater than 100000 nM. The GI50 [55] was 221 nM, the TGI [55] was 8690 nM and the GI50 [56] was 3890 nM. The TGI [56] was greater than 75500 nM, the GI50 [57] was 441 nM and the TGI [57] was 18900 nM. It also gave a GI50 [58] of 847 nM and a TGI [58] greater than 100000 nM.
